Values quoted from earlier work in patent US12569575B2, “Radiopaque particle compositions and uses thereof” (GUSTAVE ROUSSY TRANSFERT, priority 2021, dated 2026).
Converted amounts (≈) assume the structure as drawn. Where a name gives a salt, the structure may show the parent alone. Read-outs that look alike come from different tables or passages of the source.

Conditions: for Solubility in DMSO: solvent DMSO

Solubility in DMSO [mg/mL] | SMILES | other results
77 (≈ 199 mM) | CNC(=O)c1ccccc1Sc1ccc2c(/C=C/c3ccccn3)n[nH]c2c1 [Axitinib] | 
85 | Clc1ccc(Nc2nnc(Cc3ccncc3)c3ccccc23)cc1 [Vatalanib diHCl] | Solubility in Water (solvent water): 10 mg/mL
5 (≈ 19 mM) | Nc1ccn([C@@H]2O[C@H](CO)[C@@H](O)C2(F)F)c(=O)n1 [Gemcitabine] | Solubility in Water (solvent water): 25 mg/mL (≈ 95 mM)
18 | COc1cc2nccc(Oc3ccc(NC(=O)C4(C(=O)Nc5ccc(F)cc5)CC4)cc3)c2cc1OC [Cabozantinib malate] | 
50 (≈ 94.4 mM) | Cc1cn(-c2cc(NC(=O)c3ccc(C)c(Nc4nccc(-c5cccnc5)n4)c3)cc(C(F)(F)F)c2)cn1 [Nilotinib] | 
100 (≈ 251 mM) | CCN(CC)CCNC(=O)c1c(C)[nH]c(/C=C2\C(=O)Nc3ccc(F)cc32)c1C [Sunitinib] | Solubility in Water (in citrate buffer): 2 mg/mL (≈ 5.02 mM)
98 (≈ 201 mM) | Cc1nc(Nc2ncc(C(=O)Nc3c(C)cccc3Cl)s2)cc(N2CCN(CCO)CC2)n1 [Dasatinib] | 
92 (≈ 198 mM) | CNC(=O)c1cc(Oc2ccc(NC(=O)Nc3ccc(Cl)c(C(F)(F)F)c3)cc2)ccn1 [Sorafenib] | 
10 | COc1cccc2c1C(=O)c1c(O)c3c(c(O)c1C2=O)C[C@@](O)(C(=O)CO)C[C@@H]3O[C@H]1C[C@H](N)[C@@H](O)[C@H](C)O1 [Epirubicin HCl] | Solubility in Water (solvent water): 10 mg/mL
95 (≈ 217 mM) | Cc1ccc(Nc2nccc(N(C)c3ccc4c(C)n(C)nc4c3)n2)cc1S(N)(=O)=O [Pazopanib] | 

Further lines, the compound ahead of its results:

SMILES | Solubility in DMSO [mg/mL] | other results
C=CC(=O)Nc1cc2c(Nc3ccc(F)c(Cl)c3)ncnc2cc1OCCCN1CCOCC1 [Canertinib diHCl] | >5.6 | Solubility in Water (solvent water): 10 mg/mL
COc1cc2c(Nc3ccc(Br)cc3F)ncnc2cc1OCC1CCN(C)CC1 [Vandetanib] | 30 (≈ 63.1 mM) | Solubility in Water (in pH 6.5): 5 mg/mL (≈ 10.5 mM)
C#Cc1cccc(Nc2ncnc3cc(OCCOC)c(OCCOC)cc23)c1 [Erlotinib HCl] | 20 | 
COc1cc2ncnc(Nc3ccc(F)c(Cl)c3)c2cc1OCCCN1CCOCC1 [Gefitinib] | 20 (≈ 44.8 mM) | 
COc1cc(Nc2c(C#N)cnc3cc(OCCCN4CCN(C)CC4)c(OC)cc23)c(Cl)cc1Cl [Bosutinib] | 100 (≈ 189 mM) | 
COc1cccc2c1C(=O)c1c(O)c3c(c(O)c1C2=O)C[C@@](O)(C(=O)CO)C[C@@H]3O[C@H]1C[C@H](N)[C@H](O)[C@H](C)O1 [Doxorubicin HCl] | 100 | 
C[C@]12O[C@H](C[C@]1(O)CO)n1c3ccccc3c3c4c(c5c6ccccc6n2c5c31)CNC4=O [Lestaurtinib] | 44 (≈ 100 mM) | 
CS(=O)(=O)CCNCc1ccc(-c2ccc3ncnc(Nc4ccc(OCc5cccc(F)c5)c(Cl)c4)c3c2)o1.Cc1ccc(S(=O)(=O)O)cc1.Cc1ccc(S(=O)(=O)O)cc1 [Lapatinib toluene-sulfonate] | 200 | 
CNC(=O)c1cc(Oc2ccc(NC(=O)Nc3ccc(Cl)c(C(F)(F)F)c3)c(F)c2)ccn1 [Regorafenib] | 97 (≈ 201 mM) | 
CN1CCN(c2ccc3nc(-c4c(N)c5c(F)cccc5[nH]c4=O)[nH]c3c2)CC1 [Dovitinib] | 40 (≈ 102 mM) | 
Cc1ccc(NC(=O)c2ccc(CN3CCN(C)CC3)cc2)cc1Nc1nc(-c2cccnc2)cs1 [Masitinib] | >95 | Solubility in Water (solvent water): <1.2 mg/mL
COc1cc2nc(N3CCN(C(=O)C4CCCO4)CC3)nc(N)c2cc1OC (centres unmarked) [Terazosin] |  | Solubility in Water (solvent water): 20 mg/mL (≈ 51.6 mM)
COc1cc2nccc(Oc3ccc(NC(=O)NC4CC4)c(Cl)c3)c2cc1C(N)=O [Levatinib mesylate] | 9 | 
CC(=O)[C@]1(O)Cc2c(O)c3c(c(O)c2[C@@H](O[C@H]2C[C@H](N)[C@H](O)[C@H](C)O2)C1)C(=O)c1ccccc1C3=O [Idarubicin HCl] | 10 | Solubility in Water (solvent water): 1 mg/mL
